One assay deals with EGFRΔ19del/T790M/C797S (Homo sapiens, UniProt P00533, T790M/C797S, form not given). Put plainly: EGFR Δ19del/T790M/C797S kinase test (mobility variation analysis, Caliper EZ Reader). It counts as biochemical. Particulars: kinase enzymatic activity, Table 1. Put shortly: (§1)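 Read-out is substrate-to-product conversion by mobility shift, stopped after incubation at room temperature with ATP and substrate, following a 10-minute room-temperature compound–enzyme pre-incubation. IC50 obtained by four-parameter variable-slope fitting of inhibition normalized between enzyme-free and uninhibited controls.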

A further assay addresses EGFR WT (Homo sapiens, UniProt P00533). The assay is described as follows: EGFR WT kinase test (mobility variation analysis, Caliper EZ Reader). It counts as biochemical. The conditions noted are these: kinase enzymatic activity, Table 1. Put shortly:
as §1

A further assay concerns the target IGF1R (Homo sapiens, UniProt P08069). Put plainly: IGF1R kinase test (mobility variation analysis, Caliper EZ Reader). It counts as biochemical. The conditions noted are these: kinase enzymatic activity, Table 1; read-out: EGFR IGF1R IC50. The procedure, abridged:
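Mobility-shift readout of substrate conversion, normalised to positive (no compound) and negative (no kinase) controls, gives % inhibition and IC50 by four-parameter fit. Compounds, 3-fold dilutions over 10 concentrations starting at 3000 nM, preincubated 10 min with kinase before ATP/substrate start; room temperature.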

The target in assay [1] is Ba/F3 cells with EGFR Δ19del/T790M/C797S mutation gene stably overexpressed (Homo sapiens, UniProt P00533, T790M/C797S, cells depend on it, form not given). Put plainly: Ba/F3-Δ19del/T790M/C797S cell proliferation assay (CellTiter Glo, 72 hours). It counts as cell-based. Particulars: Table 2, read-out: EGFR Δ19del/T790M/C797S IC50. The procedure, abridged:
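Ba/F3 cells stably overexpressing wild-type EGFR or EGFR Δ19del/T790M/C797S were seeded at 2000 cells/well and incubated 72 h with compound. Viability was read by CellTiter-Glo luminescence, and IC50 came from a four-parameter logistic fit of signal against log concentration.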

In another assay the test system is A431. The assay is described as follows: A431 cell proliferation assay (CellTiter Glo, 72 hours). It counts as cell-based. The conditions noted are these: cell proliferation, A431, 72 hours, Table 2, read-out: A431 IC50. Put shortly: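 Luminescence (CellTiter-Glo) after 72 h treatment gives viability, fitted by nonlinear regression to yield IC50. Cells seeded at 2000 per well; nine 3-fold concentrations from 1000 nM, DMSO final 0.1% (0.5% for certain compounds).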
(Cellular ATP, detected with luciferase, serves as a proxy for viable cell number.)

Assay [2] has as its target Ba/F3-EGFR wild-type cell line (Homo sapiens, UniProt P00533). Put plainly: Ba/F3-EGFR wild-type cell proliferation assay (CellTiter Glo, 72 hours). It counts as cell-based. Particulars: Table 2, read-out: EGFR WT IC50. The procedure: Cell line: Ba/F3 cells with EGFR Δ19del/T790M/C797S mutation gene stably overexpressed named Ba/F3-Δ119del/T90M/C797S, and A431 and Ba/F3-EGFR wild-type cell line.
a) Centrifuge the growth cells in logarithmic phase at 1000 rpm for 5 minutes, resuspend the cells in culture medium, and then count the cells;
b) Inoculate the cells into a 96-well cell culture plate with a density of 2000 cells/well;
b) Incubate cells in an incubator for another 72 hours.
a) Take out the 96-well cell culture plate and add 50 μl CTG reagent (CellTiter Glo kit, promega, Cat #G7573);
b) Shake the plate for 2 minutes and let cool at room temperature for 10 minutes;
c) Read luminous signal value with PerkinElmer reader,
Analysis of Experimental Data
The data were analyzed by GraphPad Prism 6.0 software to obtain the fitting curve of compound activity.
Y=Min+(Max−Min)/(1+10^((Log IC50−X)*slope));
X: Logarithm of compound concentration; Y: luminous signal.

Where two headings read alike, the source gives them in different places.

IGF1R, sequence (P08069 31-1367, species assumed): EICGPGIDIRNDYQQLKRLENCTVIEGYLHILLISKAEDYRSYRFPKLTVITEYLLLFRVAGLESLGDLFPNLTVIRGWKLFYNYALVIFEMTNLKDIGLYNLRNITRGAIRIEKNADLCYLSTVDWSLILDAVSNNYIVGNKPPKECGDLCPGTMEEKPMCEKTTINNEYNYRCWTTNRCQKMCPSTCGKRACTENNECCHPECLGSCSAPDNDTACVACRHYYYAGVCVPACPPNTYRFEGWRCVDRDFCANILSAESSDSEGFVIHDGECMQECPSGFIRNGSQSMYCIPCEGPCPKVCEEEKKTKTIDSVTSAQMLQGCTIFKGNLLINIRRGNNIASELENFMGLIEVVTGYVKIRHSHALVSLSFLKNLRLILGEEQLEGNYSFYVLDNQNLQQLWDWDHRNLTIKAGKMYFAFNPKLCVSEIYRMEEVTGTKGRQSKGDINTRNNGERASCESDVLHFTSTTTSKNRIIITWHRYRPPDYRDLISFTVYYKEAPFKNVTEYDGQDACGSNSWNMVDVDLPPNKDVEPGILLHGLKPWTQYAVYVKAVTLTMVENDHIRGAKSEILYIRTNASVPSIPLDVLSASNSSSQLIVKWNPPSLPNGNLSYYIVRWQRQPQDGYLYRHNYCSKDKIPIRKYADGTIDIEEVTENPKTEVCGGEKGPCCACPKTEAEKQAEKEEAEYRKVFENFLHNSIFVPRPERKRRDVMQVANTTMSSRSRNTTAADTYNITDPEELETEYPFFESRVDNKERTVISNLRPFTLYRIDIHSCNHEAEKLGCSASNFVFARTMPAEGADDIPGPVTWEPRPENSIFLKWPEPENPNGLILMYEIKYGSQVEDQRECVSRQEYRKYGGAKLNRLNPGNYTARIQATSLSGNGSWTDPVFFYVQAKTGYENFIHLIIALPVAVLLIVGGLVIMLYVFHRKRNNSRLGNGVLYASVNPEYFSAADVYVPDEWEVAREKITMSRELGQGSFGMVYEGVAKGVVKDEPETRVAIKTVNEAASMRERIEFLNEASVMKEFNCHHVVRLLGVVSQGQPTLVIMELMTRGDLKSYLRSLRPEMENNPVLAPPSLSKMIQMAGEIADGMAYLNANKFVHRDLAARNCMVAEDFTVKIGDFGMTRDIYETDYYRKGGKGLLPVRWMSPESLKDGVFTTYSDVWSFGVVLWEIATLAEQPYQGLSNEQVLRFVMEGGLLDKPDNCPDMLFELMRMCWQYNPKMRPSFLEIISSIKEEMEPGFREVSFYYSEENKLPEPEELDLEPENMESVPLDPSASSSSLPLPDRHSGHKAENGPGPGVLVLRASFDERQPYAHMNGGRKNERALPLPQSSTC

Regarding `CCc1cc(Nc2ncc(Br)c(Nc3ccc(-c4ncc(C(C)C)cn4)cc3P(C)(C)=O)n2)c(OC)cc1N1CCC(N2CCN(C)CC2)CC1` [Compound 73, (2-((5-Bromo-2-((5-ethyl-2-methoxy-4-(4-(4-methylpiperazin-1-yl)piperidin-1-yl)phenyl)amino)pyrimidin-4-yl)amino)-5-(5-isopropylpyrimidin-2-yl)phenyl)dimethylphosphine oxide], the IC50 on EGFRΔ19del/T790M/C797S came to 0.9 nM; on EGFR WT, 38 nM; on IGF1R it was 223 nM; in the assay on A431 (Homo sapiens, A-431, 72 h), 1530 nM. In addition, in assay [1], the GI50 amounted to 39.5 nM.
In the case of `CCc1cc(Nc2ncc(Br)c(Nc3ccc(-c4cnc(N(C)C)nc4)cc3P(C)(C)=O)n2)c(OC)cc1N1CCC(N2CCN(C)CC2)CC1` [Compound 74, (2-((5-Bromo-2-((5-ethyl-2-methoxy-4-(4-(4-methylpiperazin-1-yl)piperidin-1-yl)phenyl)amino)pyrimidin-4-yl)amino)-5-(2-(dimethylamino)pyrimidin-5-yl)phenyl)dimethylphosphine oxide], the IC50 on EGFRΔ19del/T790M/C797S worked out at 0.3 nM; against EGFR WT, 24 nM; at IGF1R, 186 nM; in the assay with A431 (Homo sapiens, A-431, 72 h) it was 1560 nM. Also, the GI50 in assay [1] stood at 15.7 nM.
For `CCOc1ncc(-c2ccc(Nc3nc(Nc4cc(CC)c(N5CCC(N6CCN(C)CC6)CC5)cc4OC)ncc3Br)c(P(C)(C)=O)c2)cn1` [Compound 76], in that order: 0.3 nM, 36 nM, 114 nM, 1520 nM and 37.4 nM.
As for `CCc1cc(Nc2ncc(Br)c(Nc3ccc(-c4cnc(C5CC5)cn4)cc3P(C)(C)=O)n2)c(OC)cc1N1CCC(N2CCN(C)CC2)CC1` [Compound 79, (2-((5-Bromo-2-((5-ethyl-2-methoxy-4-(4-(4-methylpiperazin-1-yl)piperidin-1-yl)phenyl)amino)pyrimidin-4-yl)amino)-5-(5-cyclopropylpyrazin-2-yl)phenyl)dimethylphosphine oxide], the IC50 against EGFRΔ19del/T790M/C797S stood at 0.4 nM; against EGFR WT, 18.1 nM; on IGF1R it was 191 nM; in the assay on A431 (Homo sapiens, A-431, 72 h), 5650 nM. Besides, the GI50 in assay [1] stood at 10.7 nM.
On to `CCc1cc(Nc2ncc(Br)c(Nc3ccc(-c4cnc(C)cn4)cc3P(C)(C)=O)n2)c(OC)cc1N1CCC(N2CCN(C)CC2)CC1` [Compound 80, (2-((5-Bromo-2-((5-ethyl-2-methoxy-4-(4-(4-methylpiperazin-1-yl)piperidin-1-yl)phenyl)amino)pyrimidin-4-yl)amino)-5-(5-methylpyrazin-2-yl)phenyl)dimethylphosphine oxide], for which the IC50 against EGFRΔ19del/T790M/C797S worked out at 0.2 nM; at EGFR WT, 12.8 nM; at IGF1R, 81 nM; in the assay on A431 (Homo sapiens, A-431, 72 h) it was 4610 nM. In addition, the GI50 in assay [1] amounted to 8.2 nM.
`CCc1cc(Nc2ncc(Br)c(Nc3ccc(-c4cnc(C)c(C)n4)cc3P(C)(C)=O)n2)c(OC)cc1N1CCC(N2CCN(C)CC2)CC1` [Compound 81, (2-((5-Bromo-2-((5-ethyl-2-methoxy-4-(4-(4-methylpiperazin-1-yl)piperidin-1-yl)phenyl)amino)pyrimidin-4-yl)amino)-5-(5,6-dimethylpyrazin-2-yl)phenyl)dimethylphosphine oxide]: the 50% inhibitory concentration (IC50) against EGFRΔ19del/T790M/C797S was determined as 0.6 nM; on EGFR WT, 12.6 nM; at IGF1R, 142 nM; with A431 (Homo sapiens, A-431, 72 h), 875 nM. Besides, the GI50 in assay [1] amounted to 16.8 nM.
For `CCc1cc(Nc2ncc(Br)c(Nc3ccc(-c4ccc(C)nc4)cc3P(C)(C)=O)n2)c(OC)cc1N1CCC(N2CCN(C)CC2)CC1` [Compound 82, (2-((5-Bromo-2-((5-ethyl-2-methoxy-4-(4-(4-methylpiperazin-1-yl)piperidin-1-yl)phenyl)amino)pyrimidin-4-yl)amino)-5-(6-methylpyridin-3-yl)phenyl)dimethylphosphine oxide], the IC50 against EGFRΔ19del/T790M/C797S stood at 0.5 nM; at EGFR WT it was 29.1 nM; on IGF1R it was 179 nM; in the assay on A431 (Homo sapiens, A-431, 72 h) it was 1620 nM. Besides, the GI50 in assay [1] is 27.6 nM.
For `CCc1cc(Nc2ncc(Br)c(Nc3ccc(-c4ccc(C)cn4)cc3P(C)(C)=O)n2)c(OC)cc1N1CCC(N2CCN(C)CC2)CC1` [Compound 83, (2-((5-Bromo-2-((5-ethyl-2-methoxy-4-(4-(4-methylpiperazin-1-yl)piperidin-1-yl)phenyl)amino)pyrimidin-4-yl)amino)-5-(5-methylpyridin-2-yl)phenyl)dimethylphosphine oxide], in that order: 0.3 nM, 29.4 nM, 180 nM, 1430 nM and 20.1 nM.
With `CCc1cc(Nc2ncc(Br)c(Nc3ccc(-n4cc(C)cn4)cc3P(C)(C)=O)n2)c(OC)cc1N1CCC(N2CCN(C)CC2)CC1` [Compound 86, (2-((5-Bromo-2-((5-ethyl-2-methoxy-4-(4-(4-methylpiperazin-1-yl)piperidin-1-yl)phenyl)amino)pyrimidin-4-yl)amino)-5-(4-methyl-1H-pyrazol-1-yl)phenyl)dimethylphosphine oxide], the concentration for half-maximal inhibition (IC50) on EGFRΔ19del/T790M/C797S was 0.7 nM; on EGFR WT, 26.7 nM; at IGF1R, 219 nM; with A431 (Homo sapiens, A-431, 72 h) it was 1610 nM. For the same compound, the GI50 in assay [1] was found to be 37.4 nM.
Turning to `CCc1cc(Nc2ncc(Br)c(Nc3ccc(-c4ncc(C(C)C)cn4)cc3P(C)(C)=O)n2)c(OC)cc1N1CCC(N2CCN(C)CC2)CC1` [Compound K-056, (2-((5-Bromo-2-((5-ethyl-2-methoxy-4-(4-(4-methylpiperazin-1-yl)piperidin-1-yl)phenyl)amino)pyrimidin-4-yl)amino)-5-(5-isopropylpyrimidin-2-yl)phenyl)dimethylphosphine oxide], in assay [2], the GI50 was 524 nM.
`CCc1cc(Nc2ncc(Br)c(Nc3ccc(-c4cnc(N(C)C)nc4)cc3P(C)(C)=O)n2)c(OC)cc1N1CCC(N2CCN(C)CC2)CC1` [Compound K-057, (2-((5-Bromo-2-((5-ethyl-2-methoxy-4-(4-(4-methylpiperazin-1-yl)piperidin-1-yl)phenyl)amino)pyrimidin-4-yl)amino)-5-(2-(dimethylamino)pyrimidin-5-yl)phenyl)dimethylphosphine oxide]: the GI50 in assay [2] was determined as 206 nM.
For `CCOc1ncc(-c2ccc(Nc3nc(Nc4cc(CC)c(N5CCC(N6CCN(C)CC6)CC5)cc4OC)ncc3Br)c(P(C)(C)=O)c2)cn1` [Compound K-059, (2-((5-Bromo-2-((5-ethyl-2-methoxy-4-(4-(4-methylpiperazin-1-yl)piperidin-1-yl)phenyl)amino)pyrimidin-4-yl)amino)-5-(2-ethoxypyrimidin-5-yl)phenyl)dimethylphosphine oxide], the GI50 in assay [2] stood at 352 nM.
As for “(2-((5-Bromo-2-((5-ethyl-2-methoxy-4-(4-(4-methylpiperazin-1-yl)piperidin-1-yl)phenyl)amino]amino]pyrimidin-4-yl)amino)-5-(4-methoxy-1H-pyrazol-1-yl)phenyl)dimethylphosphine oxide [Compound 50]”, the IC50 against EGFRΔ19del/T790M/C797S was found to be 0.2 nM; at EGFR WT, 32 nM; at IGF1R, 268 nM; in the assay with A431, 1510 nM. Also, the GI50 in assay [1] was found to be 19.1 nM.

In general, IC50 refers to the point on the concentration scale where inhibition reaches its midpoint.

(Values after patent US20220402948A1, “EGFR INHIBITOR, COMPOSITION AND PREPARATION METHOD THEREFOR” (BETTA PHARMACEUTICALS CO., LTD., priority 2019, published 2022).)
